According to patent US8841414B1, “Targeted delivery of therapeutic peptides by thermally responsive biopolymers” (University of Mississippi Medical Center, priority 2006, dated 2014):
Where two headings read alike, the source gives them in different places.

Tests used:
MCF-7 cells [1] = test: Cell cycle distribution by BrdU and propidium iodide flow cytometry; type: cell-based; details: for effect on cell cycle distribution: agent alone (Pen-ELP-H1 20 μM, Dox 100 nM, etoposide 1 μM); for G1 fraction / S phase fraction: day 5
Description: FIG. 31 is a set of graphs that show cell cycle analysis of MCF-7 Cells after Pen-ELP-H1 Pretreatment before Dox or Etoposide. A. Cells were pretreated with 20 μM Pen-ELP-H1 on day 1 and 100 nM Dox or 1 μM etoposide on day 4 and analyzed on day 5 by flow cytometry with BrdU and propidium iodide staining Raw data for a single representative experiment is shown. 4 independent experiments with Dox (B) and etoposide (C) were averaged. Percentages were determined by analysis of 5000 cells/sample, and results shown represent the mean±SEM.
To gain more insight into the effect of polypeptide and drug treatment, the cell cycle distribution of MCF-7 cells was examined. Cells were treated as above with 20 μM Pen-ELP-H1 on day 1 and Dox (100 nM) or etoposide (1 μM) on day 4. On day 5, the cells were pulsed with BrdU and stained with propidium iodide for flow cytometric analysis of the cell cycle distribution. BrdU was used to accurately estimate the fraction of cells in S-phase, and this was combined with propidium iodide staining to denote each phase of the cell cycle (FIG. 31A). […] The pattern observed with Dox was enhanced upon pretreatment with Pen-ELP-H1, where the G1 fraction increased from about 48% to 53%, and the S phase fraction was reduced from 8% to 5% as compared to treatment with Dox alone (FIG. 31B).

HeLa cells = test: Drug IC50 with and without Pen-ELP-H1 pretreatment; type: cell-based, human; details: for IC50: Homo sapiens
Description: (§1) Table 4. IC50 values were collected for HeLa and MES-SA cells. The Dox and etoposide IC50 was determined with and without Pen-ELP-H1 pretreatment. Curves were fit using an exponential equation, and the IC50 value shown represents the mean±SEM of at least 5 independent determinations each performed with 4 replicates per drug concentration. Statistical significance was assessed using an unpaired Student's t-test.

MCF-7 cells [2] = test: Drug IC50 with and without polypeptide pretreatment (MTS cell viability assay); type: cell-based; details: for IC50: Homo sapiens, MCF7
Description: The effect of drug concentration on cell viability for Dox (A) or etoposide (B) was determined with and without Pen-ELP-H1 pretreatment. Cells were pretreated on day 1 with 20 μM Pen-ELP-H1 and treated on day 4 with drug. Viability was determined on day 7 using the MTS cell viability assay. A single representative experiment is shown (error bars=SD).
The ability of Pen-ELP-H1 to enhance the effectiveness of chemotherapeutic agents was tested in MCF-7 breast cancer cells. Cells were treated on day 1 with 20 μM Pen-ELP-H1 or a control polypeptide which lacks the c-Myc inhibitory sequence (Pen-ELP) for 1 h, rinsed, and placed in fresh media for 3 days. On day 4, the cells were exposed to the drugs at various concentrations for 72 h, and viability was assessed using the MTS cell viability assay. […] Data from the MTS assay was averaged and fit using an exponential equation in order to calculate the IC50 with and without pretreatment.
Table 3. […] Statistical significance was assessed using an unpaired Student's t-test.

MES-SA cells = test: Drug IC50 with and without Pen-ELP-H1 pretreatment; type: cell-based; details: for IC50: Homo sapiens
Description: as §1

c-Myc = c-Myc (UniProt P01106); test: cell-based or functional assay
Panc-1 cells = test: Panc-1 proliferation with 5-FU alone or after Bac7-ELP1-p21 pretreatment (MTS); type: cell-based, human
Description: Panc-1 cells were treated for 72 h with 5-F-U with or without pre-treatment with Bac7-ELP1-p21 for 1 hr at 42° C. Cell proliferation was assessed by the MTS assay. Bars, SEM of 3 experiments.
Resistance to Current Chemotherapeutic Agents: One of the therapeutic agents currently used in the clinical setting for pancreatic cancer is 5-Fluorouracil (5-FU).

MCF-7 cells [3] = test: Dox/etoposide toxicity after pretreatment with DFMO and/or Pen-ELP-H1 (MTS); type: cell-based; details: then Dox 750 nM for 72 h
Description: FIG. 33-1 is a set of graphs that show proliferation with DFMO and Dox or Etoposide. Cells were pretreated with 20 μM Pen-ELP-H1 or 50 μM DFMO on day 1, and treated with 750 nM Dox (A) or 200 μM etoposide (B) on day 4. Cell viability was determined on day 7 using the MTS cell viability assay. Results represent the mean±SEM of 3 independent experiments.
As a transcription factor, c-Myc influences the transcription levels of a large variety of genes. One of the genes under c-Myc control encodes the enzyme ODC (140). ODC catalyzes the first and rate-limiting step in the synthesis of cellular polyamines (148). […] Above, it was shown that interruption of the c-Myc/Max heterodimer by the Pen-ELP-H1 polypeptide caused a reduction in the steady-state levels of ODC mRNA to less than 40% of control levels (93). This observation led to the hypothesis that modulation of Dox and etoposide toxicity may be due to a reduction in the amount of ODC in the cell. In order to test this hypothesis, a combination of pretreatment with the ODC inhibitor DFMO and/or Pen-ELP-H1 was used in the Dox and etoposide toxicity assay. MCF-7 cells were pretreated with Pen-ELP-H1 (20 μM), DFMO (50 μM), or both before a 72 h exposure to Dox (750 nM) or etoposide (200 μM). […] Similar results were obtained with Pen-ELP-H1 and/or DFMO combined with etoposide (FIG. 33-1 B).

[4] = no pretreatment, read-out: IC50 (mean ± SEM)
[5] = read-out: IC50 after Pen-ELP-H1 pretreatment (mean ± SEM)
[6] = 20 μM Pen-ELP on day 1, drug on day 4 for 72 h, read-out: IC50 after Pen-ELP pretreatment (mean ± SEM)
[7] = 20 μM Pen-ELP-H1 on day 1, drug on day 4 for 72 h, read-out: IC50 after Pen-ELP-H1 pretreatment (mean ± SEM)
[8] = no pretreatment, 72 h drug exposure, read-out: IC50 (mean ± SEM)
[9] = Dox 100 nM after 20 μM Pen-ELP-H1 pretreatment

Chain of UniProt P01106 (P01106 whole entry): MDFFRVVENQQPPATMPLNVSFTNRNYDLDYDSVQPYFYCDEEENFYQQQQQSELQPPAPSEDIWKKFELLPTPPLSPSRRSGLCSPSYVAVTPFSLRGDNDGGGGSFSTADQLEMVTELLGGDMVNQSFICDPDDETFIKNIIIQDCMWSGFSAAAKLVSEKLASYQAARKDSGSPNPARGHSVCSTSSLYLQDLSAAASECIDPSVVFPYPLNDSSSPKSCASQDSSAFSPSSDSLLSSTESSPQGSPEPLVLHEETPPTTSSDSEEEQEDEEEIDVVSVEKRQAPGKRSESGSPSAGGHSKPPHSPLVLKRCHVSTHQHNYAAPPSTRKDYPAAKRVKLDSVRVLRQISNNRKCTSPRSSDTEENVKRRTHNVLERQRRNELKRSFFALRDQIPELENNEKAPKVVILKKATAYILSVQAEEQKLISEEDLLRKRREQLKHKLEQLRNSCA

Row | Compound | effect on cell cycle distribution (MCF-7 cells [1]) | reduction of IC50 by Pen-ELP-H1 pretreatment (HeLa cells) | IC50 (HeLa cells; [4]) | IC50 (HeLa cells; [5]) | IC50 (MCF-7 cells [2]; [6]) | IC50 (MCF-7 cells [2]; [7]) | IC50 (MCF-7 cells [2]; [8]) | reduction in IC50 with Pen-ELP-H1 pretreatment (MCF-7 cells [2]; MCF-7) | reduction of IC50 by Pen-ELP-H1 pretreatment (MES-SA cells) | IC50 (MES-SA cells; [4]) | IC50 (MES-SA cells; [5]) | further results
1 | COc1cc([C@@H]2c3cc4c(cc3[C@@H](O[C@@H]3O[C@@H]5CO[C@@H](C)O[C@H]5[C@H](O)[C@H]3O)[C@H]3COC(=O)[C@H]23)OCO4)cc(OC)c1O [Etoposide] | accumulation in both G1 and G2/M | 1.4 fold | 630 ± 59.2 nM | 465 ± 45.4 nM | 187000 ± 13800 nM | 141000 ± 3500 nM | 210000 ± 12400 nM | about 1.5 fold | 1.8 fold | 17300 ± 3100 nM | 9800 ± 3100 nM | effect on cell cycle distribution after Pen-ELP-H1 pretreatment (MCF-7 cells [1]; 20 μM Pen-ELP-H1 day 1, etoposide 1 μM day 4): slightly enhanced the etoposide-induced accumulation in G1
2 | COc1cccc2c1C(=O)c1c(O)c3c(c(O)c1C2=O)C[C@@](O)(C(=O)CO)C[C@@H]3O[C@H]1C[C@H](N)[C@H](O)[C@H](C)O1 [Doxorubicin] | arrest in G1 and G2/M at the expense of S phase | 1.5 fold | 13.9 ± 1.3 nM | 9.4 ± 1.2 nM | 777 ± 75.1 nM | 504 ± 35.3 nM | 752 ± 21.6 nM | about 1.5 fold | 2 fold | 33.7 ± 7.1 nM | 16.3 ± 1.6 nM | G1 fraction (MCF-7 cells [1]; [9]): 53%; S phase fraction (MCF-7 cells [1]; [9]): 5%; G1 fraction (MCF-7 cells [1]; Dox 100 nM alone): about 48%; S phase fraction (MCF-7 cells [1]; Dox 100 nM alone): 8%
3 | CC[C@@]1(O)C(=O)OCc2c1cc1n(c2=O)Cc2cc3ccccc3nc2-1 [Camptothecin] |  |  |  |  | 229 ± 46.4 nM | 235 ± 5.8 nM | 235 ± 9.8 nM |  |  |  |  | effect of Pen-ELP-H1 or Pen-ELP pretreatment on cell killing by the drug (MCF-7 cells [2]; MCF-7): no significant effect
4 | Pen-ELP1-H1 |  |  |  |  |  |  |  |  |  |  |  | steady-state levels of ODC mRNA (% of control levels) (c-Myc): < 40
5 | O=c1[nH]cc(F)c(=O)[nH]1 [5-FU, 5-Fluorouracil] |  |  |  |  |  |  |  |  |  |  |  | sensitivity of Panc-1 cells to treatment (Panc-1 cells; 72 h): highly resistant; effect of increasing the concentration on cell proliferation (Panc-1 cells; beyond 10 μM, 72 h): no increasing effect on cell proliferation; cell proliferation after pretreatment with Bac7-ELP1-p21 (Panc-1 cells; pretreated 1 h at 42° C. with Bac7-ELP1-p21, then 5-FU 72 h): dramatically reduced
6 | NCCC[C@](N)(C(=O)O)C(F)F [DFMO, α-difluoromethylornithine] |  |  |  |  |  |  |  |  |  |  |  | enhancement of Dox-induced cell killing by pretreatment (MCF-7 cells [3]; Pen-ELP-H1 20 μM or DFMO 50 μM): enhanced the Dox-induced cell killing by similar amounts; enhancement of Dox toxicity by pretreatment with the combination of Pen-ELP-H1 and DFMO (MCF-7 cells [3]; Pen-ELP-H1 20 μM plus DFMO 50 μM): no greater enhancement of Dox toxicity than either agent used alone
